Earlier results, collected in patent publication US20180116952A1, “ORAL PHARMACEUTICAL COMPOSITION OF METHYL[…] METHODS OF USE THEREOF” (Lupin Atlantis Holdings SA, priority 2015, published 2018).

Tested on: patients with drug-induced refractory headache
Conditions: 60 consecutive patients with drug-induced refractory headache

CCC(CO)NC(=O)[C@@H]1C=C2c3cccc4[nH]cc(c34)C[C@H]2N(C)C1.O=C(O)/C=C\C(=O)O (stereo partly shown) [methylergonovine, methylergonovine maleate]
patients in whom methylergonovine was effective: 73%
